Series [1] can be described thus: Antibacterial activity against methicillin-resistant Staphylococcus aureus USA300 JE2 incubated for 20 to 24 hrs by broth microdilution assay. In kind it is functional, Staphylococcus aureus subsp. aureus USA300.
Series [2] can be described thus: Cytotoxicity against human HeLa cells assessed as decrease in cell viability measured after 24 hrs by MTS assay. In kind it is toxicity, cell-based.
Series [3] can be described thus: Selectivity index, ratio of IC50 for cytotoxicity against human HeLa cells to MIC for antibacterial activity against methicillin-resistant Staphylococcus aureus USA300 JE2. The format is toxicity, cell-based. To be noted: read-out: Selectivity Index.
Series [4] can be described thus: Plasma concentration in Balc/c mouse at 10 mg/kg administered via oral gavage up to 72 hrs by LC-MS/MS method. In kind it is ADME, organism-based.
The nature of series [5]: Bactericidal activity against methicillin-resistant Staphylococcus aureus USA300 JE2 incubated up to 24 hrs. The format is functional, Staphylococcus aureus subsp. aureus USA300. To be noted: JE2, 24 h.
Series [6] in a line: Plasma concentration in Balc/c mouse at 1 mg/kg, iv up to 72 hrs by LC-MS/MS method. In kind it is ADME, organism-based.
In series [7] the test system is Staphylococcus aureus subsp. aureus USA300. Nature of the series: Antibiofilm activity against methicillin-resistant Staphylococcus aureus USA300 JE2 at 8 ug/ml measured at 48 hrs post dose relative to control. In kind it is functional.
The test system is the same in series [8]. In words: Antibiofilm activity against methicillin-resistant Staphylococcus aureus USA300 JE2 assessed as disruption of preformed biofilms at 8 ug/ml within 5 days. The format is functional.
Series [9] is described as follows: Tmax in Balc/c mouse at 10 mg/kg administered via oral gavage by LC-MS/MS method. In kind it is ADME, organism-based. The settings on record: in vivo.
For series [10], the system named is Staphylococcus aureus subsp. aureus USA300. In words: Antibiofilm activity against methicillin-resistant Staphylococcus aureus USA300 JE2 at 8 ug/ml measured at 24 hrs post dose relative to control. The format is functional.
Series [11] shares this test system. In words: Bactericidal activity against methicillin-resistant Staphylococcus aureus USA300 JE2 at 8 ug/ml incubated up to 24 hrs relative to control. The format is functional.
Series [12] shares this test system. Nature of the series: Antibiofilm activity against methicillin-resistant Staphylococcus aureus USA300 JE2 at 32 ug/ml measured at 48 hrs post dose relative to control. In kind it is functional.
Series [13] has the same test system. In words: Antibiofilm activity against methicillin-resistant Staphylococcus aureus USA300 JE2 at 32 ug/ml measured at 24 hrs post dose relative to control. The format is functional.

≈ marks a conversion by molar mass, not a printed value. Calls of active or inactive are those of the source. The rule behind the calls is not given here.

Consider `O=C(c1ccc[nH]1)c1cc(Cl)cc(Cl)c1O`, for which the MIC in series [1] is > 4 µg/mL.

Turning to `O=C(c1cc(Br)c[nH]1)c1cc(Cl)cc(Cl)c1O`, the MIC in series [1] was > 4 µg/mL.

Regarding `O=C(c1cc(Br)c(F)[nH]1)c1cc(Cl)cc(Cl)c1O`, the IC50 at 24 h in series [2] was > 35.3 µM. The selectivity ratio in series [3] is > 484. The concentration at 72 h in series [4] and in series [6] was ≥ 0.8 ng/mL throughout. Moreover, the MBC in series [5] was 4 µg/mL (≈ 11.3 µM). The Activity in series [7] turned out to be 97%; in series [10], 84%. In addition, the result in series [8] was Active. The lowest concentration to inhibit growth in series [1] (MIC) was 0.073 µg/mL (≈ 0.207 µM). Also, the Tmax in series [9] was determined as 15 min.

Turning to `Cn1c(Br)c(Br)c(Br)c1C(=O)c1cc(F)cc(F)c1O`, in series [1], the MIC is > 4 µg/mL.

Take `O=C(c1ccc[nH]1)c1cc(F)cc(F)c1O`: in [1], the MIC was > 4 µg/mL.

As to `O=C(c1cc(Br)c(Br)[nH]1)c1cc(Cl)cc(Cl)c1O`, the IC50 at 24 h in series [2] is > 41.4 µM. In addition, the selectivity ratio in series [3] is > 567. The molecule also registered an MBC in [5] of 8 µg/mL (≈ 19.3 µM). For the same molecule, the lowest concentration to inhibit growth in series [1] (MIC) was 0.073 µg/mL (≈ 0.176 µM). In addition, in series [11], the Activity worked out at 92.5%.

For the molecule `CN[C@H](CC(C)C)C(=O)N[C@H]1C(=O)N[C@@H](CC(N)=O)C(=O)N[C@H]2C(=O)N[C@H]3C(=O)N[C@H](C(=O)N[C@H](C(=O)O)c4cc(O)cc(O)c4-c4cc3ccc4O)[C@H](O)c3ccc(c(Cl)c3)Oc3cc2cc(c3O[C@@H]2O[C@H](CO)[C@@H](O)[C@H](O)[C@H]2O[C@H]2C[C@](C)(N)[C@H](O)[C@H](C)O2)Oc2ccc(cc2Cl)[C@H]1O` [VANCOMYCIN], in series [5], the MBC was 8 µg/mL (≈ 5.52 µM). The Activity worked out at 39% in series [12] and 11% in series [13]. The same molecule returned an MIC in series [1] of 2 µg/mL (≈ 1.38 µM).

With `COc1c(F)cc(F)cc1C(=O)c1[nH]c(Br)c(Br)c1Br`, the lowest concentration to inhibit growth in series [1] (MIC) was 3 µg/mL (≈ 6.33 µM).

Turning to `COc1c(F)cc(F)cc1C(=O)c1ccc[nH]1`, in series [1], the MIC is > 4 µg/mL.

On to `COc1c(F)cc(F)cc1C(=O)c1c(Br)c(Br)c(Br)n1C`, for which the MIC in series [1] is > 4 µg/mL.

Turning to `O=C(c1ccccc1O)c1[nH]c(Cl)c(Cl)c1-n1c(C(=O)c2ccc(Cl)cc2O)cc(Cl)c1Cl`, the IC50 at 24 h in [2] was > 40.9 µM. In addition, the selectivity ratio in series [3] was > 524. Also, the MIC in [1] was 0.078 µg/mL (≈ 0.143 µM).

As for `O=C(c1cc(F)cc(F)c1O)c1[nH]c(Br)c(Br)c1Br`, the IC50 at 24 h in [2] was > 46 µM. Also, in series [3], the selectivity ratio is > 275. In series [1], this molecule gave an MIC of 0.17 µg/mL (≈ 0.37 µM).

As for `O=C(c1cc(Cl)cc(Cl)c1O)c1[nH]c(F)c(Br)c1Br`, the 50% inhibitory concentration (IC50) at 24 h in [2] was > 43.2 µM. The selectivity ratio in series [3] is > 229. In addition, the MIC in [1] was determined as 0.19 µg/mL (≈ 0.44 µM).

Regarding `O=C(c1ccccc1O)c1[nH]c(Cl)c(Cl)c1-n1c(C(=O)c2cc(F)ccc2O)cc(Cl)c1Cl`, in series [2], the IC50 at 24 h was > 52.8 µM. Moreover, the selectivity ratio in series [3] was > 280. The molecule also had an MIC in series [1] of 0.19 µg/mL (≈ 0.36 µM).
